Results published in US20110124069A1, “PRODUCTION METHOD” (priority 2008, published 2011).

Experiments:
[1] = system: E. coli MG1655 gloA-mutant; assay: Toxicity of methylglyoxal, growth inhibition of gloA-mutant; assay type: cell-based; details: gloA (glyoxylase I) mutant, especially sensitive; OD580 48.5 h after inoculation
Method: (§1) E. coli MG1655 wild-type or mutants inactivated in the genes gloA and gloB, respectively, were cultivated in minimal-medium with pure-glycerol (10 g/l) as source for carbon and energy containing different amounts of methylglyoxal. Tests for methylglyoxal indicated a period of at least 72 h of chemical stability. E. coli was cultivated in microtiterplates without agitation at 37° C. under a humid atmosphere. Growth was determined at OD580 48.5 h after inoculation (FIG. 1; black bars, E. coli MG1655 wild-type; grey bars, E. coli MG1655 gloA-mutant; hatched bars, E. coli MG1655 gloB-mutant).

E. coli MG1655 wild-type = assay: Toxicity of methylglyoxal, growth inhibition of wild-type; assay type: cell-based; details: minimal medium with pure glycerol 10 g/l; microtiterplates, 37° C.; OD580 48.5 h after inoculation
Method: as §1

[2] = system: E. coli MG1655 gloB-mutant; assay: Toxicity of methylglyoxal, growth inhibition of gloB-mutant; assay type: cell-based; details: OD580 48.5 h after inoculation
Method: as §1

[3] = Chemical stability of methylglyoxal; assay type: physicochemical
Method: as §1

[4] = system: E. coli DH5alpha araB glpK mutant with plasmid pDP_gdf; assay: Growth on glucose or glycerol as carbon source, glpK mutant with plasmid pDP_gdf; assay type: cell-based; details: carbon source 10 g/l, 37° C., oxic, 5 days
Source text: (§2) Genes gldA from E. coli encoding […], dhaK from Citrobacter freundii encoding dihydroxyacetone kinase (dhaK) and fucO from E. coli encoding propanediol-oxidoreductase were cloned in plasmid pB2araJ to give plasmid pDP_gdf. Plasmid pDP_mgdf additionally contains methylglyoxal synthase from E. coli. According to known biochemical pathways, propanediol oxidoreductase is not relevant for this example. However, we tested plasmid pDP_gdf and its derivative, pDP_mgdf for functional complementation of a glpK-knock out, since these plasmids are relevant for recombinant 1,2-PD production.
(§3) Thus, an inducible unregulated pathway independent of the endogenous route to metabolise glycerol was established. The biomass finally obtained is equal or even higher compared to growth of a control strain (DH5alpha[…]araB) or when glucose is the substrate for growth.

E. coli MG1655 [5] = assay: Biomass production of E. coli MG1655 on crude or pure glycerol; assay type: cell-based; details: oxic conditions, unregulated pH, cultivation tubes
Method: E. coli was cultured in a defined minimal medium that was designed to contain low levels of phosphate, since phosphate is a known inhibitor of methyglyoxal synthase. Per liter, the medium contained: E. coli strains were routinely propagated in cultivation tubes (total volume 30 ml. Inoculum 5 ml) or glass bottles sealed with rubber-stoppers (total volume 12 ml, inoculum 10 ml) for creating semi-anoxic conditions. The term “cultivation under oxic conditions” implies cultivation in non-sealed containments with agitation. Semi-anoxic in that context means cultivation of strains without agitation in medium that was prepared under oxic conditions and in closed containments, e.g. bottles sealed with rubber-stoppers upon inoculation to avoid diffusing in of external oxygen. Cultivation times varied between 2 and 5 days, for oxic and semi-anoxic conditions, respectively. […] [table]

[6] = system: E. coli DH5alpha araB glpK mutant; assay: Growth on glucose or glycerol as carbon source, glpK mutant; assay type: cell-based; details: no plasmid, carbon source 10 g/l, 37° C., oxic, 5 days
Source text: as §2, §3

E. coli MG1655 [7] = assay: Potential of impurities in crude glycerol to substitute for macro-elements of minimal medium (biomass production); assay type: cell-based; details: glycerol 10 g/l, oxic, unregulated pH
[8] = system: E. coli DH5alpha araB-knockout; assay: Growth on glucose or glycerol as carbon source, control strain; assay type: cell-based; details: no plasmid, carbon source 10 g/l, 37° C., oxic, 5 days
Source text: as §2, §3

[9] = system: E. coli DH5alpha araB glpK mutant with plasmid pDP_mgdf; assay: Growth on glucose or glycerol as carbon source, glpK mutant with plasmid pDP_mgdf; assay type: cell-based; details: carbon source 10 g/l, 37° C., oxic, 5 days
Source text: as §2, §3

Row | Structure (SMILES) | sensitivity of growth to methylglyoxal compared with wild-type [1] | extracellular concentration of methylglyoxal at which inhibition of growth was observed (E. coli MG1655 wild-type) | sensitivity of growth to methylglyoxal compared with wild-type [2] | period of chemical stability [3] | Biomass production OD580 [4] | Biomass production [OD580] Ø (E. coli MG1655 [5]; substrate 0.63 g/l) | Biomass production [OD580] Ø (E. coli MG1655 [5]; substrate 1.25 g/l) | Biomass production [OD580] Ø (E. coli MG1655 [5]; substrate 2.5 g/l) | Biomass production [OD580] Ø (E. coli MG1655 [5]; substrate 10 g/l) | Biomass production [OD580] Ø (E. coli MG1655 [5]; substrate 20 g/l) | Biomass production [OD580] Ø (E. coli MG1655 [5]; substrate 40 g/l) | Biomass production OD580 [6] | Biomass production [OD580] Ø (E. coli MG1655 [7]; culture broth devoid of nitrogen) | Biomass production [OD580] Ø (E. coli MG1655 [7]; culture broth devoid of none) | Biomass production [OD580] Ø (E. coli MG1655 [7]; culture broth devoid of phosphate) | Biomass production [OD580] Ø (E. coli MG1655 [7]; culture broth devoid of sulfate) | Biomass production [OD580] Ø (E. coli MG1655 [7]; culture broth devoid of trace-elements) | Biomass production OD580 [8] | Biomass production OD580 [9]
1 | CC(=O)C=O [methylglyoxal] | significantly more sensitive | ≥ 2.5 mM | significantly more sensitive | at least 72 h |  |  |  |  |  |  |  |  |  |  |  |  |  |  | 
2 | OCC(O)CO [pure glycerol, glycerol] |  |  |  |  | 4.5 OD580 | 0.5 OD580 | 0.6 OD580 | 1.2 OD580 | 5.0 OD580 | 6.0 OD580 | 5.7 OD580 | 0.1 OD580 | 1.1 OD580 | 2.5 OD580 | 1.2 OD580 | 1.0 OD580 | 2.4 OD580 | 2.0 OD580 | 5.5 OD580
